Data as given in patent US9089521B2, “Method for regulating production of hemoglobin beta chains” (priority 2001, dated 2015).

Tests used:
acute sickle-cell crises = details: stated by The University of Maryland; cited from earlier work
[1] = system: erythroid precursor cells from pediatric sickle cell disease patients; test: HbS-to-HbF switching in two-phase culture, HPLC of hemoglobins and immuno-HbF fluorescence; assay type: cell-based, human; details: FIG. 23
[2] = system: endogenous ferritin-H gene expression in NT-2 (NTERA-2) stem cells; test: Western blot for ferritin-H in NT-2 cells; assay type: cell-based, human; details: Western blot after 8 days in the presence of compound vs DMSO-control, FIG. 21
Method: Cell lines. Human NTERA-2 (NT-2) embryonal carcinoma stem cells (ATCC # CRL-1973) were cultured in DMEM medium with 10% FBS and antibiotics.
Western blots and quantification. Cell lysates (i.e., extracts of human NT-2 cells) were boiled for 3-5 minutes in SDS buffer, layered onto polyacrylamide gels and were run with SDS electrophoresis buffer at 90 volts for 30 minutes. Electrophoresed samples were then placed in 3% BSA buffer and transferred at 80 volts for 2 hours to blotting membranes. A blocking reaction was performed over night with blocking buffer from ECL advance kit (GE Healthcare Bio-Sciences, NJ), followed by incubation for 4 hours in BSA buffer with fluorescent secondary antibody (1:10000) and primary anti ferritin-H (anti-FtH) polyclonal antiserum (1:1000). Ferritin-H detection was achieved using the LI-COR apparatus to visualize the fuorescent bands and Odyssey software to quantify the stained bands of ferritin-H. Isolation and culture of human mononuclear cells and maturation of erythroid precursor cells are diagrammed in FIG. 22. Whole blood was obtained from pediatric sickle cell patients at the time of scheduled transfusion therapy under an approved IRB protocol. […]

[3] = system: partially purified ferritin-protein from K562 nuclei; test: Competition gel-shift assay with labeled wt −164/−128 oligonucleotide; assay type: binding, human; details: for excess of unlabeled oligonucleotide needed for significant competition with labeled wt sequence: heated K562 nuclear extract protein, FIG. 4B/4C
Method: Preparation of nuclear extracts. Each nuclear extract preparation was made from two liters of K562 cells (1×10^6 cells/ml) using the procedure of Dignam, Lebovitz, and Roeder (Dignam, J. D., Lebovitz, R. M. & Roeder, R. G. (1983) Nucleic Acids Res 11, 1475-89). Protein content of the extracts ranged from 3 to 6 mg/ml. Extracts enriched 80-90% in ferritin-like protein(s) were prepared by treating the crude extracts with proteinase K and/or heat at 75° C. (Atkinson, B. G., Dean, R. L., Tomlinson, J. & Blaker, T. W. (1989) Biochem Cell Biol 67, 52-7).
Gel mobility shift assays. Gel retardation assays (i.e., gel shifts) were used to determine DNA binding of the extract proteins to the Rsa I (95 bp) fragment and synthetic oligonucleotides (Berg et al., (1989) Nucleic Acids Res 17, 8833-52; Fried & Crothers (1981) Nucleic Acids Res 9, 6505-25). Each reaction contained 0.5-2 ng of DNA, 1.0-5.0 ug of extract protein, 1.0-5.0 ug of poly dI:poly dC, 100 mM KCl, and binding buffer (Berg et al., (1989) Nucleic Acids Res 17, 8833-52). Unlabeled competitor oligonucleotides ranged from 15- to 2000-fold molar excess and were included in the reaction mixture with the probe before adding protein. Gels used for retardation assays were 4%, 5%, or 6% acrylamide and the running buffer was low ionic strength TAE (Berg et al., (1989) Nucleic Acids Res 17, 8833-52).
Definition of the binding site with competition gel shifts. To further localize the binding of ferritin, the 37 bp oligonucleotide was mutated in different places, replacing six nucleotides at a time with all A's, all C's, or all G's, with complementary nucleotide replacements in the opposing strand (FIG. 4A). A competition gel shift assay was done with the partially purified protein from heated K562 nuclear extract, in which each of the unlabeled mutant oligos as well as the native sequence was competed against the 32-P-labeled native sequence for binding. All mutants competed for binding as well as the native sequence except those mutated in the −153/−148 region, i.e., mutated in the sequence CAGTGC [SEQ ID NO: 6] (e.g., FIG. 4D). […]

[4] = system: distal promoter of the human β-globin gene (−222/−128); test: Gel mobility shift assay with distal promoter restriction fragment; assay type: binding; details: gel retardation assay, FIG. 2a left side
Source text: Proteins and antibodies. Ferritins from human liver (enriched in L chains) and from human heart (enriched in H chains), human transferrin (iron saturated) and apotransferrin, polyclonal (rabbit) antiserum to human spleen ferritin and nonimmune rabbit serum were obtained from Sigma Chemical Company.
Restriction fragments and oligonucleotides. The 5′ region of the human β-globin gene (from −610 to +20), previously cloned in pSV2CAT, was cut into three fragments by sequential digestions with Hind III and Rsa I. The three fragments, electroeluted from agarose (Maniatis, T., Fritsch, E. F. & Sambrook, J. (1989) Molecular Cloning: A Laboratory Manual (Cold Spring Harbor Laboratory, Cold Spring Harbor, N.Y.), were 416 bp (−638/−223), 147 bp (−127/+20, containing the proximal promoter region), and 95 bp (the Rsa fragment, −222/−128, containing mainly distal promoter sequences). The three fragments were phenol/chloroform treated, dephosphorylated, and end-labelled with 32-P as described (Maniatis, T., Fritsch, E. F. & Sambrook, J. (1989) Molecular Cloning: A Laboratory Manual (Cold Spring Harbor Laboratory, Cold Spring Harbor, N.Y.); Kurien, B. T., Scofield, R. H., & Broyles, R. H. (1997) Anal Biochem 245, 123-126). […]

For NC(=O)NO [Hydroxyurea], the “patients on whom the agent has no effect” value (acute sickle-cell crises) is listed as 25%.
For CC1=CC(=O)CC(C)(C)C1(O)/C=C/C(C)=C\C(=O)O (centres unmarked) [abscissic acid], the HbS-to-HbF hemoglobin switch ([1]; administered day 1 of phase II culture with rhEpo, HPLC, observed 23 days to 4 weeks after administration) was “total switch”, the “cellular distribution of HbF production” value ([1]; immuno-HbF fluorescence) was “pancellular” and the “ferritin-H expression in NT-2 cells” value [2] was “activated ferritin-H expression”.
For “mutant no. 4: double-stranded −164/−128 oligonucleotide mutated in the −153/−148 CAGTGC sequence, SEQ ID NO: 5 (AACTCCTAAGCAAAAAACAGAAGAGCCAAGGACAGGT; double-stranded competitor oligonucleotide, further chemistry not given here)”, the “concentration required for 50% inhibition of binding of labeled probe, relative to wt sequence” value ([3]; FIG. 4D) was 20 fold and the “excess of unlabeled oligonucleotide needed for significant competition with labeled wt sequence” value [3] was 1,000 fold excess.
With “transferrin: human transferrin, another iron-binding protein, Sigma” the “binding to −222/−128 distal promoter fragment” value [4] was “did not bind”.
In the case of “wt: double-stranded wildtype −164/−128 β-globin promoter oligonucleotide, SEQ ID NO: 1 (AACTCCTAAGCCAGTGCCAGAAGAGCCAAGGACAGGT; complementary strand not cited, chemistry not fully specified; listed as Homo sapiens)”, the “excess of unlabeled oligonucleotide needed for significant competition with labeled wt sequence” value [3] was 50 fold excess.
